Results reported in article PMC9492542, “Brain-restricted mTOR inhibition with binary pharmacology” (Nature, 2022).
Like-named read-outs stand apart in the source and are kept apart here.

Key:
476 purified kinases [1] = biological target: 476 purified kinases (Homo sapiens, UniProt O00311)
Experimental: (§1) In vitro kinase inhibition assays were performed by SelectScreen Services (Thermo Fisher Scientific) using either Z’-LYTE (mTOR, Src, Csk, EGFR, HER2 and HGK), Adapta (LRRK2) or LanthaScreen (DDR2) assay format (standardized protocols can be accessed on the SelectScreen website: https://www.thermofisher.com/us/en/home/products-and-services/services/custom-services/screening-and-profiling-services/selectscreen-profiling-service/selectscreen-kinase-profiling-service.html. When indicated, recombinant FKBP12 protein was added to the assay mixture to a final concentration of 10 µM.

476 purified kinases [2] = biological target: 476 purified kinases (Homo sapiens, UniProt O75460)
Experimental: as §1

476 purified kinases [3] = biological target: 476 purified kinases (Homo sapiens, UniProt O76039); settings: ZLYTE
Sequence of 476 purified kinases (Homo sapiens, UniProt O76039) (O76039 whole entry): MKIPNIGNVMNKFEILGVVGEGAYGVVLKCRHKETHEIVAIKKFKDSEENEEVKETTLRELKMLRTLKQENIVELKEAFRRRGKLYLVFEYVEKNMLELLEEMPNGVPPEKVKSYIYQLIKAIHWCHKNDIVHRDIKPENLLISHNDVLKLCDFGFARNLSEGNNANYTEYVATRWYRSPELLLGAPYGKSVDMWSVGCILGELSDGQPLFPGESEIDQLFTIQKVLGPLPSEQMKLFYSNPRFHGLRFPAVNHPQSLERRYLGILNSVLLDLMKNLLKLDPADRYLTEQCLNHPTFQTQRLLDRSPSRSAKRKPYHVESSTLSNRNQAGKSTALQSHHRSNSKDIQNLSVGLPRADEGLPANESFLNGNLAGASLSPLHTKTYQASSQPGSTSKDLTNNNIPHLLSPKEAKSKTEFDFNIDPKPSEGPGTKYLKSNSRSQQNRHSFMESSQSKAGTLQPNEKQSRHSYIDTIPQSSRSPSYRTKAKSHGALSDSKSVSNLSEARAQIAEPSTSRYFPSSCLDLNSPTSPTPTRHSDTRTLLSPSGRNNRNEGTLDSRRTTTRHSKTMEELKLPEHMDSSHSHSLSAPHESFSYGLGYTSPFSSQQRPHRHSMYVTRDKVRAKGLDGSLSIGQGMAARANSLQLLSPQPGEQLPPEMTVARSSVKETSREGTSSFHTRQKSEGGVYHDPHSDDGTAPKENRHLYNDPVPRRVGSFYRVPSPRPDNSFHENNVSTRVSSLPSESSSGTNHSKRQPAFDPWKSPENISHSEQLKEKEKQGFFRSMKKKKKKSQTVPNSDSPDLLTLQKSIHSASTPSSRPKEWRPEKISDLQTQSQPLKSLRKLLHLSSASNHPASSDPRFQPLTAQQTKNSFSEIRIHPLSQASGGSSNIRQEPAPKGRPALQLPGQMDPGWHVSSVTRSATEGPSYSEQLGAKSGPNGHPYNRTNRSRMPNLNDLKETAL
Experimental: as §1

476 purified kinases [4] = biological target: 476 purified kinases (Homo sapiens, UniProt O95819); settings: ZLYTE
Sequence of 476 purified kinases (Homo sapiens, UniProt O95819) (O95819 whole entry): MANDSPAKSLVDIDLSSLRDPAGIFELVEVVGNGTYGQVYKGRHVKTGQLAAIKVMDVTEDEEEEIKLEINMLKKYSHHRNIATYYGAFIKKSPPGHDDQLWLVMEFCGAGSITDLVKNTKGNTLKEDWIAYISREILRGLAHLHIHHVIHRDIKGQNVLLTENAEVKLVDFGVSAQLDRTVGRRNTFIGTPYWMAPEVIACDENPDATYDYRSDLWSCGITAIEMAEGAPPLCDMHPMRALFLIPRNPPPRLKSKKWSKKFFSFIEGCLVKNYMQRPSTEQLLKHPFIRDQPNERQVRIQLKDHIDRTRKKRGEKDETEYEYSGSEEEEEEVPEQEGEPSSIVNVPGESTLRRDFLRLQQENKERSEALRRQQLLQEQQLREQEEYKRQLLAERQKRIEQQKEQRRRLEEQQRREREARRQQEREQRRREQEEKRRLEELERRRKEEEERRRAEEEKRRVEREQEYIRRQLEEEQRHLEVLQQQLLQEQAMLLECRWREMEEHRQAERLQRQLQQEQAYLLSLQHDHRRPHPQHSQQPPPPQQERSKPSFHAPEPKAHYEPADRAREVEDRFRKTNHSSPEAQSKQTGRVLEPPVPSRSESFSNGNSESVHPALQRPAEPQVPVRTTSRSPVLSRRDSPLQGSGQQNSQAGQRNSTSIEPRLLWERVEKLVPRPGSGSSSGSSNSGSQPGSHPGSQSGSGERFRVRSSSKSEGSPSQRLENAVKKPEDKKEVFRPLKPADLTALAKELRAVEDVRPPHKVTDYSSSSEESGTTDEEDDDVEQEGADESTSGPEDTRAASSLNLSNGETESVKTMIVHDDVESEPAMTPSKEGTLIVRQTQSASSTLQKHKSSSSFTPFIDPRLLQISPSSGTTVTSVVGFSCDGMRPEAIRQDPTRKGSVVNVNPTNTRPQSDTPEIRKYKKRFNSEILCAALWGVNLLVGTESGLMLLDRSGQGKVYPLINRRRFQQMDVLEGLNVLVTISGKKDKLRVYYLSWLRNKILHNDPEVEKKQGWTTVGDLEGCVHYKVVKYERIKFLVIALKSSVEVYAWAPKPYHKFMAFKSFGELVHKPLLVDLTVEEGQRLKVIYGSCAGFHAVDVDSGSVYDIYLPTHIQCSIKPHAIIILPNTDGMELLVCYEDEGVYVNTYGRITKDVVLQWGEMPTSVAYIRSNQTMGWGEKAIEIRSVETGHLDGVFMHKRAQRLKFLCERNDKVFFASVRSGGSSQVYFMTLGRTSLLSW
Experimental: as §1

476 purified kinases [5] = biological target: 476 purified kinases (Homo sapiens, UniProt P43405); settings: ZLYTE
Experimental: as §1

476 purified kinases [6] = biological target: 476 purified kinases (Homo sapiens, UniProt P45985)
Experimental: as §1

476 purified kinases [7] = biological target: 476 purified kinases (Homo sapiens, UniProt P52564, S207E/T211E)
Experimental: as §1

476 purified kinases [8] = biological target: 476 purified kinases (Homo sapiens, UniProt Q13237); settings: ZLYTE
Sequence of 476 purified kinases (Homo sapiens, UniProt Q13237) (Q13237 whole entry): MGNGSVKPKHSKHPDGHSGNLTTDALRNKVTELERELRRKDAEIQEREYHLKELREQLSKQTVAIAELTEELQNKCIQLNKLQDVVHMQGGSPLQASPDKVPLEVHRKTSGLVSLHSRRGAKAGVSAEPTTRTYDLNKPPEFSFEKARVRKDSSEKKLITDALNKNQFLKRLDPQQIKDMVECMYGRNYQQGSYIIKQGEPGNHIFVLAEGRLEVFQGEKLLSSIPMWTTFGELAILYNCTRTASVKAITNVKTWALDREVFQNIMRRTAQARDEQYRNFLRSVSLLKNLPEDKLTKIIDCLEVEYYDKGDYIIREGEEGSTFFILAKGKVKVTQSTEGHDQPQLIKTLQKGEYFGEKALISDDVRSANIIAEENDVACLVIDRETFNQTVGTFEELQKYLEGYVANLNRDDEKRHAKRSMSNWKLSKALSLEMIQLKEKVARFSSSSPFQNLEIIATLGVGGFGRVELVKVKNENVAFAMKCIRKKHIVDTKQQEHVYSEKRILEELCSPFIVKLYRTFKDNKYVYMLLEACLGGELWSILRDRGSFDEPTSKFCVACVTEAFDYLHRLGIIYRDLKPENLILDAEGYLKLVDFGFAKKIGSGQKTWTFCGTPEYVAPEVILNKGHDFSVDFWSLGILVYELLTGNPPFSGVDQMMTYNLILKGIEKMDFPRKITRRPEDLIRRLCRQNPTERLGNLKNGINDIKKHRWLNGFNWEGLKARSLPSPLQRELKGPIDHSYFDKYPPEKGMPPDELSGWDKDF
Experimental: as §1

476 purified kinases [9] = biological target: 476 purified kinases (Homo sapiens, UniProt Q13470); settings: ZLYTE
Experimental: as §1

476 purified kinases [10] = biological target: 476 purified kinases (Homo sapiens, UniProt Q13557); settings: ZLYTE
Experimental: as §1

476 purified kinases [11] = biological target: 476 purified kinases (Homo sapiens, UniProt Q13705)
Experimental: as §1

476 purified kinases [12] = biological target: 476 purified kinases (Homo sapiens, UniProt Q52WX2); settings: ZLYTE
Sequence of 476 purified kinases (Homo sapiens, UniProt Q52WX2) (Q52WX2 whole entry): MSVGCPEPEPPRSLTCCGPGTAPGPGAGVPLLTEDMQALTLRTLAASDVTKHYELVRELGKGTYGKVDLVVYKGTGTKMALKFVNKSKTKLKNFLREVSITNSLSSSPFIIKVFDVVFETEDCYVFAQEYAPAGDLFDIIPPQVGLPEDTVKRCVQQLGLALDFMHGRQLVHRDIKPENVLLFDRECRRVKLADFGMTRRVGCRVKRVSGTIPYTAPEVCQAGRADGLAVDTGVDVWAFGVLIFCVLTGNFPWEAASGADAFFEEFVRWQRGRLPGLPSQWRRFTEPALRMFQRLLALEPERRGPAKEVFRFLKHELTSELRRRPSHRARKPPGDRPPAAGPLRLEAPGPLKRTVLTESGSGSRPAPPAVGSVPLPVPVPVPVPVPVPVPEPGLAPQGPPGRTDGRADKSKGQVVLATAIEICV
Experimental: as §1

476 purified kinases [13] = biological target: 476 purified kinases (Homo sapiens, UniProt Q86UE8)
Experimental: as §1

476 purified kinases [14] = biological target: 476 purified kinases (Homo sapiens, UniProt Q86UX6)
Experimental: as §1

476 purified kinases [15] = biological target: 476 purified kinases (Homo sapiens, UniProt Q8IY84); settings: ZLYTE
Sequence of 476 purified kinases (Homo sapiens, UniProt Q8IY84) (Q8IY84 whole entry): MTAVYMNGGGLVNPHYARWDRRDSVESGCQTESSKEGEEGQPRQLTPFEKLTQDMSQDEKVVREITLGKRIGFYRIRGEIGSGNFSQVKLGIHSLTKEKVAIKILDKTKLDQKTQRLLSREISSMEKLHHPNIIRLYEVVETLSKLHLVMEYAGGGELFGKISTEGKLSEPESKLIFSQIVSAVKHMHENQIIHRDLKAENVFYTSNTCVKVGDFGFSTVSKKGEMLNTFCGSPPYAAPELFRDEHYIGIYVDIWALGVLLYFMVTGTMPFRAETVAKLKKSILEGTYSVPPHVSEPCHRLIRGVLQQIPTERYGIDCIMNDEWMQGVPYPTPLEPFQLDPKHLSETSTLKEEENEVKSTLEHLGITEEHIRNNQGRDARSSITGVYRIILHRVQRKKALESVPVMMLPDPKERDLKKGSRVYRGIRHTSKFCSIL
Experimental: as §1

476 purified kinases [16] = biological target: 476 purified kinases (Homo sapiens, UniProt Q8WTQ7); settings: ZLYTE
Experimental: as §1

476 purified kinases [17] = biological target: 476 purified kinases (Homo sapiens, UniProt Q96NX5); settings: ZLYTE
Experimental: as §1

476 purified kinases [18] = biological target: 476 purified kinases (Homo sapiens, UniProt Q96RR4)
Experimental: as §1

476 purified kinases [19] = biological target: 476 purified kinases (Homo sapiens, UniProt Q96SB4); settings: ZLYTE
Sequence of 476 purified kinases (Homo sapiens, UniProt Q96SB4) (Q96SB4 whole entry): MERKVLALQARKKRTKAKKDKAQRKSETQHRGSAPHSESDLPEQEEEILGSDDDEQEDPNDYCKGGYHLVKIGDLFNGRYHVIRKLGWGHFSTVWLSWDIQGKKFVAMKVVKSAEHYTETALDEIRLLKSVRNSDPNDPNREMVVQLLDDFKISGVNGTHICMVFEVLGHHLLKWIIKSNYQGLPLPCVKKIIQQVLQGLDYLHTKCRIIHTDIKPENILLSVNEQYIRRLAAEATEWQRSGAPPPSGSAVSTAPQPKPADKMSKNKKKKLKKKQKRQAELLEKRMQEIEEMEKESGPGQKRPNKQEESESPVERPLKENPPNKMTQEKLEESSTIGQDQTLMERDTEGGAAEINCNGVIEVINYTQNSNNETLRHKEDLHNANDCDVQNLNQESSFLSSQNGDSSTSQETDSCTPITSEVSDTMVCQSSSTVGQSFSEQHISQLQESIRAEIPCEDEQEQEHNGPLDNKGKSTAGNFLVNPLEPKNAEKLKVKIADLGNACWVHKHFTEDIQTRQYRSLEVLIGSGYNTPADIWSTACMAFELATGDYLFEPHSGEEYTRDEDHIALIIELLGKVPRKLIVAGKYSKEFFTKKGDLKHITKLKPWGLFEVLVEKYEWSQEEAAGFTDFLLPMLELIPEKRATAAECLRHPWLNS
Experimental: as §1

476 purified kinases [20] = biological target: 476 purified kinases (Homo sapiens, UniProt Q9UEE5)
Sequence of 476 purified kinases (Homo sapiens, UniProt Q9UEE5) (Q9UEE5 whole entry): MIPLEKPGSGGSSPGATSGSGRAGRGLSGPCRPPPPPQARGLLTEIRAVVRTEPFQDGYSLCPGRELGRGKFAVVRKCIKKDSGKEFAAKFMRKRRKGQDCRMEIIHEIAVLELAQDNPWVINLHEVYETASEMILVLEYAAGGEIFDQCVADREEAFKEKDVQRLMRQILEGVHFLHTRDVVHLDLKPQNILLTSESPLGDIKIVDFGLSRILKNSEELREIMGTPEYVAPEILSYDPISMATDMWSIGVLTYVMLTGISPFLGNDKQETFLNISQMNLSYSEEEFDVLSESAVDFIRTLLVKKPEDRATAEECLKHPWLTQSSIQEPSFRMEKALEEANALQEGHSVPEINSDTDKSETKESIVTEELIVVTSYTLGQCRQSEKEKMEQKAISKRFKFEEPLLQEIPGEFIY
Experimental: as §1

476 purified kinases [21] = biological target: 476 purified kinases (Homo sapiens, UniProt Q9UEW8)
Experimental: as §1

Cc1nc(Nc2ncc(C(=O)Nc3c(C)cccc3Cl)s2)cc(N2CCN(CCO)CC2)n1 [Dasatinib]
CDC7/DBF4 (LanthaScreen Binding) (476 purified kinases [1]; 10 nM compound): 7
CDC7/DBF4 (LanthaScreen Binding) (476 purified kinases [1]; 10 nM compound + 10 µM FKBP12): 16
ERN1 (LanthaScreen Binding) (476 purified kinases [2]; 10 nM compound): 0
ERN1 (LanthaScreen Binding) (476 purified kinases [2]; 10 nM compound + 10 µM FKBP12): 0
CDKL5 (kinase profiling) (476 purified kinases [3]; 10 nM): 5
CDKL5 (kinase profiling) (476 purified kinases [3]; 10 nM + 10 µM FKBP12): 7
MAP4K4 (HGK) (kinase profiling) (476 purified kinases [4]; 10 nM): 10
MAP4K4 (HGK) (kinase profiling) (476 purified kinases [4]; 10 nM + 10 µM FKBP12): 12
SYK (kinase profiling) (476 purified kinases [5]; 10 nM): 6
SYK (kinase profiling) (476 purified kinases [5]; 10 nM + 10 µM FKBP12): 8
MAP2K4 (MEK4) (LanthaScreen Binding) (476 purified kinases [6]; 10 nM compound): -1
MAP2K4 (MEK4) (LanthaScreen Binding) (476 purified kinases [6]; 10 nM compound + 10 µM FKBP12): -2
MAP2K6 (MKK6) S207E T211E (LanthaScreen Binding) (476 purified kinases [7]; 10 nM compound): -2
MAP2K6 (MKK6) S207E T211E (LanthaScreen Binding) (476 purified kinases [7]; 10 nM compound + 10 µM FKBP12): 2
PRKG2 (PKG2) (kinase profiling) (476 purified kinases [8]; 10 nM): 1
PRKG2 (PKG2) (kinase profiling) (476 purified kinases [8]; 10 nM + 10 µM FKBP12): -7
TNK1 (kinase profiling) (476 purified kinases [9]; 10 nM): 0
TNK1 (kinase profiling) (476 purified kinases [9]; 10 nM + 10 µM FKBP12): -2
CAMK2D (CaMKII delta) (kinase profiling) (476 purified kinases [10]; 10 nM): 6
CAMK2D (CaMKII delta) (kinase profiling) (476 purified kinases [10]; 10 nM + 10 µM FKBP12): 11
ACVR2B (LanthaScreen Binding) (476 purified kinases [11]; 10 nM compound): 5
ACVR2B (LanthaScreen Binding) (476 purified kinases [11]; 10 nM compound + 10 µM FKBP12): 12
SBK1 (kinase profiling) (476 purified kinases [12]; 10 nM): 3
SBK1 (kinase profiling) (476 purified kinases [12]; 10 nM + 10 µM FKBP12): 10
TLK2 (LanthaScreen Binding) (476 purified kinases [13]; 10 nM compound): -3
TLK2 (LanthaScreen Binding) (476 purified kinases [13]; 10 nM compound + 10 µM FKBP12): -3
STK32C (YANK3) (LanthaScreen Binding) (476 purified kinases [14]; 10 nM compound): -1
STK32C (YANK3) (LanthaScreen Binding) (476 purified kinases [14]; 10 nM compound + 10 µM FKBP12): -2
NIM1K (kinase profiling) (476 purified kinases [15]; 10 nM): 7
NIM1K (kinase profiling) (476 purified kinases [15]; 10 nM + 10 µM FKBP12): 17
GRK7 (kinase profiling) (476 purified kinases [16]; 10 nM): 3
GRK7 (kinase profiling) (476 purified kinases [16]; 10 nM + 10 µM FKBP12): -1
CAMK1G (CAMKI gamma) (kinase profiling) (476 purified kinases [17]; 10 nM): 1
CAMK1G (CAMKI gamma) (kinase profiling) (476 purified kinases [17]; 10 nM + 10 µM FKBP12): -5
CAMKK2 (CaMKK beta) (LanthaScreen Binding) (476 purified kinases [18]; 10 nM compound): 3
CAMKK2 (CaMKK beta) (LanthaScreen Binding) (476 purified kinases [18]; 10 nM compound + 10 µM FKBP12): 8
SRPK1 (kinase profiling) (476 purified kinases [19]; 10 nM): 4
SRPK1 (kinase profiling) (476 purified kinases [19]; 10 nM + 10 µM FKBP12): 3
STK17A (DRAK1) (LanthaScreen Binding) (476 purified kinases [20]; 10 nM compound): 3
STK17A (DRAK1) (LanthaScreen Binding) (476 purified kinases [20]; 10 nM compound + 10 µM FKBP12): 8
STK39 (STLK3) (LanthaScreen Binding) (476 purified kinases [21]; 10 nM compound): 4
STK39 (STLK3) (LanthaScreen Binding) (476 purified kinases [21]; 10 nM compound + 10 µM FKBP12): -5
